Experimental data published in PubChem BioAssay AID1845205 (Molecular Pharmacology Branch, DTP, NCI, 2023).

Tested on: MPNST multicellular tumor spheroids, viability % test/control
Experiment: Anticancer human tumor MPNST cell line growth inhibition;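 further: spheroids exposed to agents for seven days after three days of growth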;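 on viability, T/C: luminescence signal used as surrogate for viable cell amount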
Settings: for IC50: curve of first compound; for viability, T/C: stronger effect = lower value
Summary of the method: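 Complex spheroids of malignant cells with endothelial cells and mesenchymal stem cells; agents alone or combined, from near clinical Cmax (or 10 microM if unknown) down in half-log steps, 0.25% DMSO final.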

## COc1ccc([C@@H](O)c2cc(-c3ncnc4cc(N5CCOCC5)ccc34)c(F)cc2Cl)nn1 + COc1cc2c(cc1O)CCNC21CSC2c3c(OC(C)=O)c(C)c4c(c3C(COC1=O)N1C(O)C3Cc5cc(C)c(OC)c(O)c5C(C21)N3C)OCO4
Second compound 30 pM
  IC50: 171 nM
Second compound 94.9 pM
  IC50: 531 nM
Second compound 0.0003 µM
  IC50: 645 nM
Second compound 0.000949 µM
  IC50: 174 nM
Second compound 0.003 µM
  IC50: < 31.6 nM
Second compound 30 pM, first compound 0.0316 µM
  viability, T/C: 97.1%
Second compound 30 pM, first compound 0.1 µM
  viability, T/C: 72%
Second compound 30 pM, first compound 0.316 µM
  viability, T/C: 24.1%
Second compound 30 pM, first compound 1 µM
  viability, T/C: 12.8%
Second compound 30 pM, first compound 3.16 µM
  viability, T/C: 5.82%
Second compound 30 pM, first compound 10 µM
  viability, T/C: 3.35%
Second compound 94.9 pM, first compound 0.0316 µM
  viability, T/C: 113%
Second compound 94.9 pM, first compound 0.1 µM
  viability, T/C: 74.7%
Second compound 94.9 pM, first compound 0.316 µM
  viability, T/C: 70.9%
Second compound 94.9 pM, first compound 1 µM
  viability, T/C: 39.6%
Second compound 94.9 pM, first compound 3.16 µM
  viability, T/C: 8.1%
Second compound 94.9 pM, first compound 10 µM
  viability, T/C: 3.63%
Second compound 0.0003 µM, first compound 0.0316 µM
  viability, T/C: 89.4%
Second compound 0.0003 µM, first compound 0.1 µM
  viability, T/C: 70.9%
Second compound 0.0003 µM, first compound 0.316 µM
  viability, T/C: 92.8%
Second compound 0.0003 µM, first compound 1 µM
  viability, T/C: 28.8%
Second compound 0.0003 µM, first compound 3.16 µM
  viability, T/C: 9.77%
Second compound 0.0003 µM, first compound 10 µM
  viability, T/C: 2.97%
Second compound 0.000949 µM, first compound 0.0316 µM
  viability, T/C: 84.4%
Second compound 0.000949 µM, first compound 0.1 µM
  viability, T/C: 48.4%
Second compound 0.000949 µM, first compound 0.316 µM
  viability, T/C: 55.4%
Second compound 0.000949 µM, first compound 1 µM
  viability, T/C: 14.4%
Second compound 0.000949 µM, first compound 3.16 µM
  viability, T/C: 11.7%
Second compound 0.000949 µM, first compound 10 µM
  viability, T/C: 0.94%
Second compound 0.003 µM, first compound 0.0316 µM
  viability, T/C: 15.7%
Second compound 0.003 µM, first compound 0.1 µM
  viability, T/C: 16.1%
Second compound 0.003 µM, first compound 0.316 µM
  viability, T/C: 8.56%
Second compound 0.003 µM, first compound 1 µM
  viability, T/C: 4.27%
Second compound 0.003 µM, first compound 3.16 µM
  viability, T/C: 2.63%
Second compound 0.003 µM, first compound 10 µM
  viability, T/C: 0.51%
